The structures appear in SMILES notation.

The target in assay [1] is T1, Human CD73 (amino acid residues 27-549) (Homo sapiens, UniProt P21589).
T1 construct: Human CD73 (amino acid residues 27-549); His tag (N); made in house; host or cells: E. coli
T1 sequence (P21589 27-549): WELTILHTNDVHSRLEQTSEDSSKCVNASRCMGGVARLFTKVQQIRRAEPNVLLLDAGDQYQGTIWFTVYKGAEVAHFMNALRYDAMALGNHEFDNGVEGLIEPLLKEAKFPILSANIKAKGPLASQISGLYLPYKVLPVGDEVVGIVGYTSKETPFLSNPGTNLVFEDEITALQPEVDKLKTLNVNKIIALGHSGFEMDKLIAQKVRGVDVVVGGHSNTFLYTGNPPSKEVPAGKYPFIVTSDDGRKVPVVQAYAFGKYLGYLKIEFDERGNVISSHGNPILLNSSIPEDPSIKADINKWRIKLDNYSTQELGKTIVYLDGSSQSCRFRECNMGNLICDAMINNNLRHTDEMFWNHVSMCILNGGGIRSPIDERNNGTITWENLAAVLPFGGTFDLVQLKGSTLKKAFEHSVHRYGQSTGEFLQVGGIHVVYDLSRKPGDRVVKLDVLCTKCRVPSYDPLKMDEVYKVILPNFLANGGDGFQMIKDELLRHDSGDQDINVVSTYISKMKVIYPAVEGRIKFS
The experiment in a line: CD73 enzymatic assay (luciferase-based indirect assay, CellTiter-Glo). The following applies: 0.4 nM CD73, 150 μM AMP, 1 hour at room temperature. In kind it is biochemical. In short, it runs like this:
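His-tagged human CD73 (27-549) from E. coli, 0.4 nM, with 150 μM AMP in 50 mM HEPES pH 7.4, 0.01% Tween 20; 1 h at room temperature. AMP remaining read by CellTiter-Glo 2.0 luminescence with 1 μM final ATP after 30 min. IC50 from nonlinear regression of % inhibition.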
For orientation: In ATP-based viability assays light output follows the ATP content of the culture.

A further assay addresses T2, human CD73 (Homo sapiens, UniProt P21589).
T2 construct: expressed in transfected cells
T2 sequence (P21589 27-549): T1 sequence (P21589 27-549)
Kind of assay: Inhibitor activity against CD73 in cell based assay (CD73 expressing CHO-K1 cells). The following applies: CHO-K1 cells expressing human CD73, 150 μM AMP, 4 hours of incubation; read-out: CHO-K1 CELL VARIANT: CD73 IC50. In short, it runs like this:
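Stably transfected CHO-K1 cells expressing human CD73 (1×10^4/well) incubated 4 h with compound (8-point 1:3 titration, top 10 μM final, 0.2% DMSO) and 150 μM AMP. Residual AMP in supernatant measured by CellTiter-Glo luminescence with 1 μM ATP after 30 min at room temperature; IC50 by nonlinear regression of percent inhibition vs high/low controls.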

A word on the IC50: it is the point on the concentration scale where inhibition reaches its midpoint. On to `O=C(N[C@@H]1CCC(F)(F)C1)O[C@@H]1CCN(c2cnn(CCO)c(=O)c2Cl)C1` [P-0467, (R)-1-(5-chloro-1-(2-hydroxyethyl)-6-oxo-1,6-dihydropyridazin-4-yl)pyrrolidin-3-yl ((R)-3,3-difluorocyclopentyl)carbamate], for which the IC50 (in assay [1]; on human CD73) was 0.001 to 10 µM in each case.

In the case of `NCCn1ncc(N2CC[C@@H](OC(=O)N[C@@H]3CCC(F)(F)C3)C2)c(Cl)c1=O` [P-0468, (R)-1-(1-(2-aminoethyl)-5-chloro-6-oxo-1,6-dihydropyridazin-4-yl)pyrrolidin-3-yl ((R)-3,3-difluorocyclopentyl)carbamate], the IC50 (in assay [1]; at human CD73) was 0.001 to 10 µM throughout.

Consider `O=C(N[C@@H]1CCC[C@H]1C(=O)O)O[C@@H]1CCN(c2cn[nH]c(=O)c2Cl)C1` [P-0469, (1R,2R)-2-(((((R)-1-(5-chloro-6-oxo-1,6-dihydropyridazin-4-yl)pyrrolidin-3-yl)oxy)carbonyl)amino) cyclopentane-1-carboxylic acid], for which the IC50 (in assay [1]; at human CD73) was 0.001 to 10 µM in each case.

Consider `O=C(N[C@H]1CCC[C@@H]1O)O[C@@H]1CCN(c2cn[nH]c(=O)c2Cl)C1` [P-0471, (R)-1-(5-chloro-6-oxo-1,6-dihydropyridazin-4-yl)pyrrolidin-3-yl ((1S,2S)-2-hydroxycyclopentyl)carbamate], for which the IC50 (in assay [1]; at human CD73) was 0.001 to 10 µM each time.

`CC(C)(C(=O)N1CCC(NC(=O)O[C@@H]2CCN(c3cn[nH]c(=O)c3Cl)C2)CC1)c1ccc(F)cc1` [P-0472, (R)-1-(5-chloro-6-oxo-1,6-dihydropyridazin-4-yl)pyrrolidin-3-yl (1-(2-(4-fluorophenyl)-2-methylpropanoyl)piperidin-4-yl)carbamate]: the IC50 (in assay [1]; at human CD73) was 0.001 to 10 µM each time.

Turning to `N#Cc1c(N2CC[C@@H](OC(=O)NC3CCCCC3)C2)cnn(CCO)c1=O` [P-0473, (R)-1-(5-cyano-1-(2-hydroxyethyl)-6-oxo-1,6-dihydropyridazin-4-yl)pyrrolidin-3-yl cyclohexylcarbamate], the IC50 (in assay [1]; on human CD73) was 0.001 to 10 µM throughout.

As to `O=C(NC1CCC(F)(F)CC1)O[C@H]1CN(c2cnn(CCO)c(=O)c2Cl)C[C@@H]1F` [P-0474, (3S,4S)-1-(5-chloro-1-(2-hydroxyethyl)-6-oxo-1,6-dihydropyridazin-4-yl)-4-fluoropyrrolidin-3-yl (4,4-difluorocyclohexyl)carbamate], the IC50 (in assay [1]; at human CD73) was 0.001 to 10 µM throughout.

Consider `O=C(NC1CCCC1)O[C@H]1CN(c2cnn(CCO)c(=O)c2Cl)C[C@@H]1F` [P-0475, (3S,4S)-1-(5-chloro-1-(2-hydroxyethyl)-6-oxo-1,6-dihydropyridazin-4-yl)-4-fluoropyrrolidin-3-yl cyclopentylcarbamate], for which the IC50 (in assay [1]; on human CD73) was 0.001 to 10 µM in each case.

As for `N#CC1(NC(=O)O[C@@H]2CCN(c3cnn(CCO)c(=O)c3Cl)C2)CCCC1` [P-0476, (R)-1-(5-chloro-1-(2-hydroxyethyl)-6-oxo-1,6-dihydropyridazin-4-yl)pyrrolidin-3-yl (1-cyanocyclopentyl)carbamate], the IC50 (in assay [1]; on human CD73) was 0.001 to 10 µM throughout.

Take `O=C(N[C@@H]1CCC[C@H]1O)O[C@@H]1CCN(c2cnn(CCO)c(=O)c2Cl)C1` [P-0477, (R)-1-(5-chloro-1-(2-hydroxyethyl)-6-oxo-1,6-dihydropyridazin-4-yl)pyrrolidin-3-yl ((1R,2R)-2-hydroxycyclopentyl)carbamate]: the IC50 (in assay [1]; at human CD73) was 0.001 to 10 µM in each case.

`O=C(N[C@@H]1CCC[C@@H]1C(F)(F)F)O[C@@H]1CCN(c2cnn(CCO)c(=O)c2Cl)C1` [P-0478, (R)-1-(5-chloro-1-(2-hydroxyethyl)-6-oxo-1,6-dihydropyridazin-4-yl)pyrrolidin-3-yl ((1R,2S)-2-(trifluoromethyl)cyclopentyl) carbamate]: the IC50 (in assay [1]; on human CD73) was 0.001 to 10 µM each time.

`O=C(NC1CCCC(F)(F)C1)O[C@@H]1CCN(c2cnn(CCO)c(=O)c2Cl)C1` (stereo partly drawn) [P-0479, (R)-1-(5-chloro-1-(2-hydroxyethyl)-6-oxo-1,6-dihydropyridazin-4-yl)pyrrolidin-3-yl (3,3-difluorocyclohexyl)carbamate]: the IC50 (in assay [1]; on human CD73) was 0.001 to 10 µM in each case.

On to `O=C(NC1(C2CC2)CC1)O[C@@H]1CCN(c2cnn(CCO)c(=O)c2Cl)C1` [P-0480, (R)-1-(5-chloro-1-(2-hydroxyethyl)-6-oxo-1,6-dihydropyridazin-4-yl)pyrrolidin-3-yl [1,1′-bi(cyclopropan)]-1-ylcarbamate], for which the IC50 (in assay [1]; at human CD73) was 0.001 to 10 µM throughout.

With `O=C(N[C@@H]1CCC[C@@H]1O)O[C@@H]1CCN(c2cn[nH]c(=O)c2Cl)C1` [P-0481, (R)-1-(5-chloro-6-oxo-1,6-dihydropyridazin-4-yl)pyrrolidin-3-yl ((1R,2S)-2-hydroxycyclopentyl)carbamate], the IC50 (in assay [1]; on human CD73) was 0.001 to 10 µM throughout.

As for `O=C(N[C@H]1CC[C@@H](NC2CCC(F)(F)CC2)CC1)O[C@@H]1CCN(c2cn[nH]c(=O)c2Cl)C1` [P-0482, (R)-1-(5-chloro-6-oxo-1,6-dihydropyridazin-4-yl)pyrrolidin-3-yl ((1s,4S)-4-((4,4-difluorocyclohexyl)amino)cyclohexyl)carbamate], the IC50 (in assay [1]; at human CD73) was 0.001 to 10 µM in each case.

For the compound `N#Cc1c(N2C[C@H](OC(=O)NC3CCC(F)(F)CC3)[C@@H](F)C2)cn[nH]c1=O` [P-0483, (3S,4S)-1-(5-cyano-6-oxo-1,6-dihydropyridazin-4-yl)-4-fluoropyrrolidin-3-yl (4,4-difluorocyclohexyl)carbamate], the IC50 (in assay [1]; on human CD73) was 0.001 to 10 µM each time.

For the compound `N#Cc1c(N2C[C@H](OC(=O)NC3CCCC3)[C@@H](F)C2)cn[nH]c1=O` [P-0484, (3S,4S)-1-(5-cyano-6-oxo-1,6-dihydropyridazin-4-yl)-4-fluoropyrrolidin-3-yl cyclopentylcarbamate], the IC50 (in assay [1]; on human CD73) was 0.001 to 10 µM in each case.

Regarding `N#Cc1c(N2C[C@H](OC(=O)NC3CCC(F)(F)CC3)[C@@H](F)C2)cnn(CCO)c1=O` [P-0485, (3S,4S)-1-(5-cyano-1-(2-hydroxyethyl)-6-oxo-1,6-dihydropyridazin-4-yl)-4-fluoropyrrolidin-3-yl (4,4-difluorocyclohexyl)carbamate], the IC50 (in assay [1]; at human CD73) was 0.001 to 10 µM throughout.

With `N#Cc1c(N2C[C@H](OC(=O)NC3CCCC3)[C@@H](F)C2)cnn(CCO)c1=O` [P-0486, (3S,4S)-1-(5-cyano-1-(2-hydroxyethyl)-6-oxo-1,6-dihydropyridazin-4-yl)-4-fluoropyrrolidin-3-yl cyclopentylcarbamate], the IC50 (in assay [1]; at human CD73) was 0.001 to 10 µM in each case.

`O=C(N[C@H]1CC[C@@H](NC2CCOCC2)CC1)O[C@@H]1CCN(c2cn[nH]c(=O)c2Cl)C1` [P-0487, (R)-1-(5-chloro-6-oxo-1,6-dihydropyridazin-4-yl)pyrrolidin-3-yl ((1s,4S)-4-((tetrahydro-2H-pyran-4-yl)amino)cyclohexyl)carbamate]: the IC50 (in assay [1]; on human CD73) was 0.001 to 10 µM throughout.

Consider `O=C(N[C@H]1CC[C@@H](NC2CC3CCC2C3)CC1)O[C@@H]1CCN(c2cn[nH]c(=O)c2Cl)C1` (stereo partly drawn) [P-0488, (R)-1-(5-chloro-6-oxo-1,6-dihydropyridazin-4-yl)pyrrolidin-3-yl ((1R,4S)-4-(((1S,4R)-bicyclo[2.2.1]heptan-2-yl)amino)cyclohexyl)carbamate], for which the IC50 (in assay [1]; on human CD73) was 0.001 to 10 µM each time.

As to `O=C(N[C@H]1CC[C@@H](NC2CCS(=O)(=O)CC2)CC1)O[C@@H]1CCN(c2cn[nH]c(=O)c2Cl)C1` [P-0489, (R)-1-(5-chloro-6-oxo-1,6-dihydropyridazin-4-yl)pyrrolidin-3-yl ((1s,4S)-4-((1,1-dioxidotetrahydro-2H-thiopyran-4-yl)amino)cyclohexyl)carbamate], the IC50 (in assay [1]; at human CD73) was 0.001 to 10 µM in each case.

Turning to `O=C(NC1CCN(C(=O)Nc2ccc(F)cc2F)CC1)O[C@@H]1CCN(c2cn[nH]c(=O)c2Cl)C1` [P-0490, (R)-1-(5-chloro-6-oxo-1,6-dihydropyridazin-4-yl)pyrrolidin-3-yl (1-((2,4-difluorophenyl)carbamoyl)piperidin-4-yl)carbamate], the IC50 (in assay [1]; at human CD73) was 0.001 to 10 µM each time.

The values are drawn from US12509444B2, “Compounds and methods for CD73 modulation and indications therefor” (Plexxikon Inc., priority 2019, dated 2025).
